Reference: ChEMBL document CHEMBL1129562, “Non-peptide cholecystokinin-B/gastrin receptor antagonists based on bicyclic, heteroaromatic skeletons” (J Med Chem, 1996)

Legend:
[1] = target: T1, Gastrin/cholecystokinin type B receptor (Mus musculus, UniProt P56481); experiment: In vitro inhibitory activity against Cholecystokinin type B receptor using [125I]BH-CCK-8S as radioligand in mouse cortical membranes; type: cell membranes
T1 sequence (P56481 whole entry): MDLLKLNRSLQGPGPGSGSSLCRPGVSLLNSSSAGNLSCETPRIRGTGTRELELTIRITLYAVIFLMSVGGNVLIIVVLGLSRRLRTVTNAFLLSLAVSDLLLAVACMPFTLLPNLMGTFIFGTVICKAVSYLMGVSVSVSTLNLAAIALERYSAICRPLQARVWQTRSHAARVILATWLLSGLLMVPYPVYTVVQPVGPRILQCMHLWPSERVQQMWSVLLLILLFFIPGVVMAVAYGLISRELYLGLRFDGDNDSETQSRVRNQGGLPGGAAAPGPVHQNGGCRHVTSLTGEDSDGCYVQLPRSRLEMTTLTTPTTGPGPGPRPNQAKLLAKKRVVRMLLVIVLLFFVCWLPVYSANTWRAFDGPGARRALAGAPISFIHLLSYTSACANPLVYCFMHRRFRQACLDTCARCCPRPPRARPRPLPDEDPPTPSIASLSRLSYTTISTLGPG

[2] = target: T2, Cholecystokinin receptor type A (Cavia porcellus, UniProt Q63931); experiment: In vitro inhibitory activity against Cholecystokinin type A receptor using [125I]BH-CCK-8S as radioligand in guinea pig pancreatic cells
T2 sequence (Q63931 whole entry): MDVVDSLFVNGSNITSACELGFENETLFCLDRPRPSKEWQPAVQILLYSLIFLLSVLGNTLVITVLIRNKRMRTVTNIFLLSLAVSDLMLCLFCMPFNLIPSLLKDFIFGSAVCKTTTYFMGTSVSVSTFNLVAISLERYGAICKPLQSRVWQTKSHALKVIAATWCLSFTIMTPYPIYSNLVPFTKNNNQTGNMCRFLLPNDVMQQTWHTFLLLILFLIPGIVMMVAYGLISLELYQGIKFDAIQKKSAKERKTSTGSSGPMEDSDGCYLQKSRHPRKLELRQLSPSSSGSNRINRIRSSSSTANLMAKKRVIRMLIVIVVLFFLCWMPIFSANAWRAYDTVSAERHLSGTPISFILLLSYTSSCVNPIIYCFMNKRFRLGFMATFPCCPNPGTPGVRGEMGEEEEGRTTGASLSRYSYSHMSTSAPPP

[3] = target: T3, Gastrin/cholecystokinin type B receptor (Rattus norvegicus) (UniProt P30553); experiment: Intravenous activity against Cholecystokinin type B receptor in Gosh and Schild rat at a dsoe of 0.025 umol/kg (in vivo); type: functional, organism-based
T3 sequence (whole entry): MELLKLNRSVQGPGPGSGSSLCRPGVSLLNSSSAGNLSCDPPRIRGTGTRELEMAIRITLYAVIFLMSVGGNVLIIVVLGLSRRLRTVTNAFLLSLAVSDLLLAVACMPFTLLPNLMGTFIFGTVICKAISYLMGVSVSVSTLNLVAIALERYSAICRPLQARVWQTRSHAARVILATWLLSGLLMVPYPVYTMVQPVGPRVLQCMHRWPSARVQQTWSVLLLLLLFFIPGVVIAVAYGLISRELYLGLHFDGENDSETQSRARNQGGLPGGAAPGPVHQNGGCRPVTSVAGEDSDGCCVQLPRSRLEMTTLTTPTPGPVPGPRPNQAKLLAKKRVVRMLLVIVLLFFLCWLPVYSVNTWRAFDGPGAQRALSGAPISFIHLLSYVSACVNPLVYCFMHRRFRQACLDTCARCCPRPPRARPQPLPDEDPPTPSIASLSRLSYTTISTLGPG

Canis familiaris = experiment: Intravenous activity against CCKB/Gastrin antagonist in gastric fistula dog at dose 0.1 uM/kg (in vivo); type: functional, Canis lupus familiaris, Stomach

Ki [1] [nM] | Ki [2] [nM] | inhibition [3] [%] | Compound | Inhibition (Canis familiaris) [%]
13.5 | 3390 |  | O=C(O)c1cc(NC(=O)[C@H](Cc2ccccc2)NC(=O)c2cc3[nH]ccc3cc2C(=O)NCC23CC4CC(CC(C4)C2)C3)cc(C(=O)O)c1 | 
0.741 | 3310 |  | O=C(O)c1cc(NC(=O)[C@H](Cc2ccccc2F)NC(=O)c2cc3cc[nH]c3cc2C(=O)NCC23CC4CC(CC(C4)C2)C3)cc(C(=O)O)c1 | 
1.1 | 3630 | 97 | O=C(O)c1cc(NC(=O)[C@H](Cc2ccccc2)NC(=O)c2cc3cc[nH]c3cc2C(=O)NCC23CC4CC(CC(C4)C2)C3)cc(C(=O)O)c1 | 79
 | 2820 |  | O=C(O)c1cc(NC(=O)[C@H](Cc2ccc(O)cc2)NC(=O)c2cc3[nH]cnc3cc2C(=O)NCC23CC4CC(CC(C4)C2)C3)cc(C(=O)O)c1 | 
5.25 | 1480 | 61 | O=C(O)c1cc(NC(=O)[C@H](Cc2ccccc2)NC(=O)c2cc3[nH]cnc3cc2C(=O)NCC23CC4CC(CC(C4)C2)C3)cc(C(=O)O)c1 | 
4.47 | 2570 |  | O=C(O)c1cc(NC(=O)[C@H](Cc2ccccc2F)NC(=O)c2cc3[nH]cnc3cc2C(=O)NCC23CC4CC(CC(C4)C2)C3)cc(C(=O)O)c1 | 

The remaining lines, values behind:

Compound | Ki [1] [nM] | Ki [2] [nM] | inhibition [3] [%] | Inhibition (Canis familiaris) [%]
O=C(O)c1cc(NC(=O)[C@H](Cc2ccccc2)NC(=O)c2cc3cc[nH]c3cc2C(=O)NCC2CCCCCC2)cc(C(=O)O)c1 | 15.1 | 3160 |  | 
O=C(O)c1cc2ccccc2cc1C(=O)NCC12CC3CC(CC(C3)C1)C2 | 2880 | 11700 |  | 
O=C(NCC12CC3CC(CC(C3)C1)C2)c1cc2ccccc2cc1C(=O)N1CCC[C@@H]1C(=O)O | 339 | 3550 |  | 
O=C(O)c1cc(NC(=O)[C@H](Cc2ccccc2)NC(=O)c2cc3ccoc3cc2C(=O)NCC23CC4CC(CC(C4)C2)C3)cc(C(=O)O)c1 | 5.37 | 3800 |  | 
O=C(O)c1cc(NC(=O)[C@H](Cc2ccccc2)NC(=O)c2cc3ccsc3cc2C(=O)NCC23CC4CC(CC(C4)C2)C3)cc(C(=O)O)c1 | 1.23 | 2240 |  | 
O=C(O)C1C2c3ccccc3C(c3ccccc32)C1C(=O)NCC12CC3CC(CC(C3)C1)C2 (stereo not drawn) | 537 | 8320 |  | 
O=C(NCC1CCCCCC1)c1cc2nc[nH]c2cc1C(=O)N[C@@H](Cc1ccccc1F)C(=O)Nc1cc(-c2nn[nH]n2)cc(-c2nn[nH]n2)c1 | 3.89 | 912 |  | 
O=C(NCC12CC3CC(CC(C3)C1)C2)c1cc2nc[nH]c2cc1C(=O)N[C@@H](Cc1ccccc1)C(=O)Nc1cc(-c2nn[nH]n2)cc(-c2nn[nH]n2)c1 | 4.07 | 891 |  | 
O=C(O)c1cc(NC(=O)[C@H](Cc2ccccc2F)NC(=O)c2cc3[nH]cnc3cc2C(=O)NCC2CCCCCC2)cc(C(=O)O)c1 | 7.59 | 7410 |  | 
O=C(NCC12CC3CC(CC(C3)C1)C2)c1cc2[nH]ccc2cc1C(=O)N[C@@H](Cc1ccccc1)C(=O)Nc1cc(-c2nn[nH]n2)cc(-c2nn[nH]n2)c1 | 1.2 | 1290 |  | 
O=C(NCC12CC3CC(CC(C3)C1)C2)C1C2c3ccccc3C(c3ccccc32)C1C(=O)N1CCC[C@@H]1C(=O)O (stereo partly drawn) | 891 | 8130 |  | 
O=C(O)c1cc(NC(=O)[C@H](Cc2ccccc2)NC(=O)c2cc3ccccc3cc2C(=O)NCC23CC4CC(CC(C4)C2)C3)cc(C(=O)O)c1 | 13.2 | 851 |  | 
